The record followed here is paper PMC6934184, “Selective DNA-PKcs inhibition extends the therapeutic index of localized radiotherapy and chemotherapy” (The Journal of Clinical Investigation, 2019).

The test deals with T1, AXL R499C (Homo sapiens, UniProt P30530, R499C).
T1 construct: purchased Thermo Fisher Scientific (Life Technologies) SelectScreen
Put plainly: SelectScreen LanthaScreen. It counts as binding. The note with it: read-out: % displacement. Put shortly: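 Percent values come from Thermo SelectScreen profiling of NU5455, combining activity and binding assays. CSF1R was run in Z'LYTE format at Km app ATP, and CAMK1 in Adapta format with ATP listed at 10.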

T1 sequence (P30530 26-894 R499C): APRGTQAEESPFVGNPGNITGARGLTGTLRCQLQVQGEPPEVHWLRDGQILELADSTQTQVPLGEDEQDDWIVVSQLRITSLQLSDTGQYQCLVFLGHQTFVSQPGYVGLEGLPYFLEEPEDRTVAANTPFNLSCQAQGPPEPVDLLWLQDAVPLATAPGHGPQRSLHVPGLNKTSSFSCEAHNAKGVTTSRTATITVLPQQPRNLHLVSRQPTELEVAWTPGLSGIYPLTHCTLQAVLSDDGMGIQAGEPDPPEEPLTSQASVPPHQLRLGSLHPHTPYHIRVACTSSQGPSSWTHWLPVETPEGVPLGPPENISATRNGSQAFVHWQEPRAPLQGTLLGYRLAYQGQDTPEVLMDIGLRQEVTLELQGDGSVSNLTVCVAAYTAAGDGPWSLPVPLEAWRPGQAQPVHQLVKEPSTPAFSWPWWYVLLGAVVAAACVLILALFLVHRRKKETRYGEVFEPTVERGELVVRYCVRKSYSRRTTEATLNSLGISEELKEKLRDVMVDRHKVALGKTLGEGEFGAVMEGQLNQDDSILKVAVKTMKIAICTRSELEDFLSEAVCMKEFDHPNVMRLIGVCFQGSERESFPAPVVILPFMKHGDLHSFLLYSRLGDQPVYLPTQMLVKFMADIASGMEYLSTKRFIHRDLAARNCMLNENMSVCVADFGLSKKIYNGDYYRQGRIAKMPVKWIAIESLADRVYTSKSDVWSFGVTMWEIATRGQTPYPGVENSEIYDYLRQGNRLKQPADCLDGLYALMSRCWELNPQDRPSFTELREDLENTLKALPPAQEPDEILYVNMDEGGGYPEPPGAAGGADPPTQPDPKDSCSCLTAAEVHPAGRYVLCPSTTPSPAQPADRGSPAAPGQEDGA

As to `CN(C(=O)CN1CCOCC1)c1ccc2sc3c(-c4cccc5c(=O)cc(N6CC7CCC(C6)O7)oc45)cccc3c2c1` [NU5455], the inhibition at 1 µM is -2.7%.
